Target: T1, Adenosine receptor A1 (Bos taurus, UniProt P28190)
T1 sequence (P28190 whole entry): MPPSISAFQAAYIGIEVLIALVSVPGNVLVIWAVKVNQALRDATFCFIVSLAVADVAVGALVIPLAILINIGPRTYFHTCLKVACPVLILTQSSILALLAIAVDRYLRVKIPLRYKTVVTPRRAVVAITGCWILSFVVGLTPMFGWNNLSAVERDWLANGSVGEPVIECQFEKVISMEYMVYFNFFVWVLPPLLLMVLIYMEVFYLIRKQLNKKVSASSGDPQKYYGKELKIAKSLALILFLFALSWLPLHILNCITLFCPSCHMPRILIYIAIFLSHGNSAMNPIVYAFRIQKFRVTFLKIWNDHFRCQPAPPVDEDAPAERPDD
Assay: Displacement of [3H]phenylisopropyladenosine from adenosine A1 receptor in bovine cerebral cortex membrane
Format: cell membranes

COc1cc(-c2oc3c(OC)cc(CCCO)cc3c2C=O)ccc1O
IC50: 17 nM
